Measurements as given in US20140206763A1, “PHENYLBUTYRATE FOR TREATMENT OF SPORADIC INCLUSION-BODY MYOSITIS AND DISORDERS RELATING TO AUTOPHAGY IMPAIRMENT OR AMYLOID BETA 42 ACCUMULATION” (UNIVERSITY OF SOUTHERN CALIFORNIA, priority 2013, published 2014).
“Also recorded” adds a separate entry of the source. Each block holds one compound with its values, some of them ahead of it.

How the values were obtained:
[1] = patients with urea cycle-disorders, compared with NaPB; cited from earlier work
[2] = tested on: LC3-II; assay: LC3-II immunoblot with densitometric analysis in CHMFs; assay type: cell-based, human; conditions: for increase of LC3-II: exposure to inhibitor alone, vs control CHMFs
Experimental: (§1) Primary cultures of normal human muscle were established as routinely performed in our laboratory (Askanas and Engel, 1992) from archived satellite cells of portions of diagnostic muscle biopsies from patients who, after all tests were performed, were considered free of muscle disease. Each experiment was performed on 3-9 different culture sets, each established from satellite cells derived from a different muscle biopsy. 10-15 days after myoblast fusion, the well-differentiated myotubes were, as previously described (Nogalska et al., 2012; Nogalska et al., 2010b), exposed for 24 hours to either: a) chloroquine (Chl), a lysosomotropic agent raising lysosomal pH and inhibiting activities of cathepsins (Shacka et al., 2006) (50 μM, Sigma-Aldrich, St. Louis, Mo.); or b) bafilomycin Al (Baf), an inhibitor of lysosomal V-ATPase causing an increase in lysosomal pH and inhibiting activities of cathepsins (Shacka et al., 2006) (25 nM, Sigma-Aldrich). CHMFs were also treated with NaPB (Tocris/R&D Systems, Minneapolis, Minn.) in doses ranging from 1-15 mM, used either alone or together with chloroquine or bafilomycin.
(§2) CHMFs were harvested in RIPA buffer and immunoblotted, as previously detailed (D'Agostino et al., 2011; Nogalska et al., 2012; Nogalska et al., 2010b) using antibodies against LC3 (1:500, Novus Biologicals, Littleton, Colo.), p62 (1:100, A-6, Santa Cruz Biotechnology) or NBR1 (1:700). Aβ42 oligomers were studied using 6E10 antibody (1:500, Covance, Princeton, N.J.), as described (Nogalska et al., 2010a). Blots were developed using anti-rabbit or anti-mouse WesternBreeze chemiluminescence kits (Invitrogen). Protein loading was evaluated by the actin band (1:600, C-2, Santa Cruz Biotechnology). Quantification of the immunoreactivity was performed by densitometric analysis using NIH Image J 1.310 software.

[3] = tested on: Cathepsin B; assay: Measurement of Cathepsin B activity in CHMFs; assay type: cell-based, human; conditions: for reduction of Cathepsin B activity: exposure to inhibitor alone, vs control CHMFs
Experimental: as §1
Cathepsin B [EC 3.4.22.1] activity was measured as described (Nogalska et al., 2010b). Samples were measured in duplicate. All samples were incubated at 37° C. for 45 min, and the fluorescence emission excited at 355 nm was recorded at 444 nm. Activity of cathepsin B was expressed as arbitrary fluorescence units.

[4] = tested on: Aβ42; assay: Aβ42 ELISA in CHMFs; assay type: cell-based, human
Experimental: as §1
To quantify endogenous Aβ42 content in cultured human muscle fibers, we used the “Human β-Amyloid (1-42) ELISA kit, WAKO, High Sensitive” (WAKO Chemicals USA, Inc., Richmond, Va.) as described (Nogalska et al., 2012). Homogenates were freshly prepared in RIPA buffer containing a protease inhibitor cocktail (Roche Diagnostic, Mannheim, Germany). 100 μg of protein per well from each sample were diluted in a Standard Diluent Buffer provided in the kit, added to the assay plates in duplicate, and incubated overnight at 4° C. The ELISA was performed the next day, according to manufacturer's protocol. The absorbance was read at 450 nm.

[5] = cited from earlier work
[6] = tested on: Aβ42 oligomers; assay: Aβ42 oligomers immunoblot (6E10 antibody) in CHMFs; assay type: cell-based, human
Experimental: Primary cultures of normal human muscle were established as routinely performed in our laboratory (Askanas and Engel, 1992) from archived satellite cells of portions of diagnostic muscle biopsies from patients who, after all tests were performed, were considered free of muscle disease. Each experiment was performed on 3-9 different culture sets, each established from satellite cells derived from a different muscle biopsy. […]
as §2, with “Aβ42 oligomers were studied using 6E10 antibody (1:500, Covance, Princeton, N.J.), as described (Nogalska et al., 2010a). Blots were developed using anti-rabbit or anti-mouse WesternBreeze chemiluminescence kits (Invitrogen).” left out

[7] = tested on: p62; assay: p62 immunoblot with densitometric analysis in CHMFs; assay type: cell-based, human; conditions: for increase of p62: exposure to inhibitor alone, vs control CHMFs
Experimental: as §1, §2

[8] = tested on: control CHMFs; assay: Morphology and muscle-fiber viability of control CHMFs; assay type: cell-based, human; conditions: 15 mM NaPB
Experimental: as §1

[9] = tested on: GFP-LC3; assay: GFP-LC3 puncta count (autophagosome accumulation) in CHMFs; assay type: cell-based, human
Experimental: To morphologically evaluate accumulation of autophagosomes, three different tissue-culture sets (experiments) were transduced with PremoAutophagy Sensor GFP-LC3 (Invitrogen, Carlsbad, Calif.) according to the manufacturer's instructions. 24 hours later, CHMFs were treated with chloroquine as described above. Counting of the GFP-LC3 puncta in the muscle fibers was performed on all three different culture experiments. Each experiment involved the same three different conditions: control, chloroquine-exposed, and chloroquine-exposed-plus-NaPB-treated cultures. In each experiment, each condition was composed of two cultures. For the analysis, eight random fields per condition of each culture were photographed (magnification ×40) in each of the three experiments. Overall, in each of the three conditions GFP-LC3 puncta were evaluated in more than 80 fibers, independently by two investigators (AN and CD). In addition, GFP-LC3 transduced CHMFs were also processed for immunofluorescence of NBR1 (1:100, 4BR, Santa Cruz Biotechnology, Santa Cruz, Calif.).

[10] = tested on: γ-secretase; assay: Measurement of γ-secretase activity in CHMFs; assay type: cell-based, human
Experimental: as §1
γ-secretase activity was measured as previously described (Nogalska et al., 2012). Briefly, cultures were homogenized in PBS buffer with addition of 0.05% CHAPS. The supernatants containing 50 μg of protein were added to the reaction mixture containing assay buffer (50 mM TRIS-HCl pH 6.8, 2 mM EDTA, 0.25% CHAPS). The reaction was initiated by adding a specific synthetic substrate NMA-Amyloid β-Protein (aa708-715)-Lys-(DNP) Arg-Arg-Arg-amide trifluoroacetate salt (10 μM) (Sigma-Aldrich). After overnight incubation at 37° C., the samples were centrifuged at 16,000×g for 15 minutes, supernatants were transferred to a 96-well plate and the fluorescence emission excited at 390 nm was recorded at 444 nm. Activity of γ-secretase was expressed as arbitrary fluorescence units.

[11] = tested on: NBR1; assay: NBR1 immunoblot with densitometric analysis in CHMFs; assay type: cell-based, human; conditions: for increase of NBR1 levels: exposure to inhibitor alone, vs control CHMFs
Experimental: as §1, §2

[12] = tested on: Cathepsin D; assay: Measurement of Cathepsin D activity in CHMF homogenates; assay type: cell-based, human; conditions: for reduction of Cathepsin D activity: exposure to inhibitor alone, vs control CHMFs
Experimental: as §1
Cathepsin D [EC 3.4.23.5] activity was measured utilizing a Cathepsin D Assay Kit (Sigma, St. Louis, Mo.) according to manufacturer's instructions and as previously detailed (Nogalska et al., 2010b). Homogenates were prepared in phosphate buffer-saline with addition of CHAPS (0.05%) (Sigma-Aldrich). All samples were measured in duplicate. The fluorescence emission excited at 355 nm was recorded at 405 nm every 2 minutes. Activity of cathepsin D measured in the linear phase of the reaction was expressed as fluorescence-intensity per minute.

[13] = tested on: cultured human muscle fibers (CHMFs); assay: Vacuolization of cultured human muscle fibers by phase-contrast microscopy; assay type: cell-based; conditions: for vacuolization of chloroquine-exposed CHMFs: chloroquine 50 μM 24 hours + NaPB 15 mM, vs chloroquine alone; for vacuolization of CHMFs after exposure to lysosomal inhibitor alone: exposure alone 24 hours, vs control CHMFs
Experimental: as §1

[14] = tested on: CHMFs; assay: Treatment of CHMFs with HDAC inhibitor compared with PB; assay type: cell-based, human; conditions: data not shown
[15] = bafilomycin+NaPB (15 mM) vs bafilomycin alone
[16] = chloroquine+NaPB (15 mM) vs chloroquine alone
[17] = bafilomycin+NaPB (15 mM) vs bafilomycin without NaPB
[18] = autophagy-impaired cultures, not significantly worse than controls
[19] = chloroquine alone vs control CHMFs

SMILES: O=C(CCCc1ccccc1)OCC(COC(=O)CCCc1ccccc1)OC(=O)CCCc1ccccc1 [GPB, 1,2,3-Propanetriyl tris(4-phenylbutanoate)]
lowering blood ammonia [1]: as effective as NaPB

γ-secretase activity value after NaPB treatment compared with controls (ANOVA) [10, 18]: fully corrected
SMILES: O=C([O-])CCCc1ccccc1.[Na+] [NaPB, Sodium 4-phenylbutanoate]
decrease of LC3-II [2, 15]: 36%
decrease of LC3-II [2, 16]: 54%
effect on protein level of LC3-II ([2]; control CHMFs, NaPB 1-15 mM): did not exert any effect
effect on Cathepsin B activity in ER-stress model ([3]; ER-stress-induced CHMFs, data not shown): mitigates the reduction of Cathepsin B activity
higher activity of Cathepsin B [3, 17]: 40%
increase of Cathepsin B activity [3, 16]: 70%
effect on Cathepsin B activity ([3]; control CHMFs, NaPB 1-15 mM): did not exert any effect
Aβ42 by ELISA value after NaPB treatment compared with controls (ANOVA) [4, 18]: fully corrected
lower amount of Aβ42 by ELISA ([4]; bafilomycin+NaPB (15 mM) vs bafilomycin alone, 2 culture sets, statistical significance not reached): 28%
decrease of Aβ42 by ELISA [4, 16]: 53%
tolerability, daily and long-term ([5]; infants, children and adults with urea-cycle disorders): usually well tolerated
tolerability in preliminary trials ([5]; patients with amyotrophic lateral sclerosis (ALS)): well-tolerated
lower amount of Aβ42 oligomers [6, 15]: 60%
decrease of Aβ42 oligomers ([6]; chloroquine+NaPB (15 mM) vs autophagy-impaired NaPB-non-treated CHMFs): 65%
decrease of p62 [7, 15]: 83%
decrease of p62 [7, 16]: 74%
effect on p62 at lower dose ([7]; chloroquine-exposed CHMFs, NaPB 5 mM): significantly decreased p62; also recorded: statistically significantly decreased
effect on protein level of p62 ([7]; control CHMFs, NaPB 1-15 mM): did not exert any effect
adverse morphologic abnormalities and muscle-fiber viability [8]: did not produce either adverse morphologic abnormalities or affect muscle-fiber viability
decrease of number of GFP-LC3 foci ([9]; chloroquine+NaPB (15 mM) vs chloroquine-only exposed cultures): 53%
decrease of γ-secretase activity ([10]; chloroquine+NaPB (15 mM) vs untreated autophagy-impaired CHMFs): 56%
decrease of NBR1 [11, 15]: 34%
reduction of increased NBR1 [11, 16]: 63%
effect on protein level of NBR1 ([11]; control CHMFs, NaPB 1-15 mM): did not exert any effect
Cathepsin D value after NaPB treatment compared with controls (ANOVA) [12, 18]: fully corrected
higher activity of Cathepsin D [12, 17]: 15%
increase of Cathepsin D activity [12, 16]: 40%
effect on Cathepsin D activity ([12]; control CHMFs, NaPB 1-15 mM): did not exert any effect
vacuolization of bafilomycin-exposed CHMFs ([13]; bafilomycin 25 nM 24 hours + NaPB 15 mM, vs bafilomycin alone): nearly completely prevented their vacuolization; also recorded: morphologically prominent decrease of their vacuolization
vacuolization of chloroquine-exposed CHMFs [13]: virtually completely prevented their vacuolization
vacuolization of chloroquine-exposed CHMFs ([13]; listed as PB): prominently eliminating their vacuolization

SMILES: CO/C1=C\C(C)=C\[C@@H](C)[C@@H](O)[C@@H](C)C/C(C)=C/C=C/[C@H](OC)[C@@H]([C@@H](C)[C@@H](O)[C@H](C)[C@@]2(O)C[C@@H](O)[C@H](C)[C@@H](C(C)C)O2)OC1=O [bafilomycin, bafilomycin Al]
increase of LC3-II [2]: 17 fold
reduction of Cathepsin B activity [3]: 85%
Aβ42 by ELISA after inhibitor exposure ([4]; Baf-exposed CHMFs, two separate experiments): elevated
increase of p62 [7]: 18 fold
increase of NBR1 levels [11]: 9 fold
reduction of Cathepsin D activity [12]: 25%
vacuolization of CHMFs after exposure to lysosomal inhibitor alone [13]: induced pronounced vacuolization

SMILES: CCN(CC)CCCC(C)Nc1ccnc2cc(Cl)ccc12 (centres unmarked) [chloroquine]
increase of LC3-II [2]: 9 fold
reduction of Cathepsin B activity [3]: 60%
increase of Aβ42 by ELISA [4, 19]: 60%
increase of p62 [7]: 9 fold
increase of number of GFP-LC3 foci/puncta per muscle fiber ([9]; exposure alone, vs control CHMFs): 8 fold
γ-secretase activity after inhibitor exposure [10, 19]: significantly increased γ-secretase activity
increase of NBR1 levels [11]: 5 fold
reduction of Cathepsin D activity [12]: 40%
vacuolization of CHMFs after exposure to lysosomal inhibitor alone [13]: induced pronounced vacuolization

SMILES: CC(/C=C/C(=O)NO)=C\[C@@H](C)C(=O)c1ccc(N(C)C)cc1 [trichostatinA]
ameliorative effect compared with PB [14]: did not have an effect similar to that achieved with PB
